Calls of active or inactive are those of the source. No cut-off for these calls is given here.
Legend:
[1] = molecular target: Dual specificity protein phosphatase 3 (Homo sapiens) (UniProt P51452); test: Inhibition of VHR at 100 uM
[2] = molecular target: T1, Dual specificity protein phosphatase 22 (Homo sapiens, UniProt Q9NRW4); test: Inhibition of VHX
T1 sequence (Q9NRW4 whole entry): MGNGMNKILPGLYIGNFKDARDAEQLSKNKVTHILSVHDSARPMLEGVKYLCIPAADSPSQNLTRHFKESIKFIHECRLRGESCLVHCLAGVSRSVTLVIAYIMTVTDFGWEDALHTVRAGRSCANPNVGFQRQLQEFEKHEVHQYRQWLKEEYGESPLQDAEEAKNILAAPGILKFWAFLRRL

[3] = molecular target: Receptor-type tyrosine-protein phosphatase alpha (Homo sapiens) (UniProt P18433); test: Inhibition of PTPalpha at 100 uM
Receptor-type tyrosine-protein phosphatase alpha (Homo sapiens), sequence (P18433 20-802 limits assumed): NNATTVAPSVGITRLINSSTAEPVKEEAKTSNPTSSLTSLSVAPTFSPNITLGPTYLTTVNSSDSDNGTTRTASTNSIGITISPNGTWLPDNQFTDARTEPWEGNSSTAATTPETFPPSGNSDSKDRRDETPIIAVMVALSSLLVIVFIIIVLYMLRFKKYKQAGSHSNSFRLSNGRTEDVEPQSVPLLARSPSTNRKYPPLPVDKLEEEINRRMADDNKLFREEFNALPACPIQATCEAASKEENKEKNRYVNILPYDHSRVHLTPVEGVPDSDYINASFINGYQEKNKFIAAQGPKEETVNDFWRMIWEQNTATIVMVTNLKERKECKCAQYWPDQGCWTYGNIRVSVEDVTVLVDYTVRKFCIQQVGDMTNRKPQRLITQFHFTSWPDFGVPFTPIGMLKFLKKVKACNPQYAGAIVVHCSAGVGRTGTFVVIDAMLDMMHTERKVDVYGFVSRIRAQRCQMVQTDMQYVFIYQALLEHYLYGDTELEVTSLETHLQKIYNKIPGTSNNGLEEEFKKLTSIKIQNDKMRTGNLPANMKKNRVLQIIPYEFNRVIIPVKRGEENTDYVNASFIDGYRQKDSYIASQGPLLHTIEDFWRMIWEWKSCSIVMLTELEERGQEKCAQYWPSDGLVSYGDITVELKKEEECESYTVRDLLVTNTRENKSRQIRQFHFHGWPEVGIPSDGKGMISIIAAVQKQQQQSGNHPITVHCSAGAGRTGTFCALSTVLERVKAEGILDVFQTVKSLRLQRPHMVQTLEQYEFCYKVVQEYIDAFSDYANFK

[4] = Inhibition of Cdc14 at 100 uM
[5] = molecular target: T2, Tyrosine-protein phosphatase non-receptor type 1 (Homo sapiens, UniProt P18031); test: Inhibition of PTP1B
T2 sequence (P18031 whole entry): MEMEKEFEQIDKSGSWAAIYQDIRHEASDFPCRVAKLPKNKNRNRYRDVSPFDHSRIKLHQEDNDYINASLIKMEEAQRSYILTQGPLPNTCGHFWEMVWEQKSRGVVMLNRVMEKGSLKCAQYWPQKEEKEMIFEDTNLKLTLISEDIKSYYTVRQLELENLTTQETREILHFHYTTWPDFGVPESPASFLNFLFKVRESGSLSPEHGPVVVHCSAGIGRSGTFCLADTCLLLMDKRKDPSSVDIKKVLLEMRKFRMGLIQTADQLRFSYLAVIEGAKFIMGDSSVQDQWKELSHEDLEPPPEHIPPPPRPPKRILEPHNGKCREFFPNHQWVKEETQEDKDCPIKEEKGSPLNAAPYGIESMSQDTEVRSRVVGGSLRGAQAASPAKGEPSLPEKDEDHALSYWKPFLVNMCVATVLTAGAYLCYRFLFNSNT

[6] = molecular target: T3, Tyrosine-protein phosphatase non-receptor type 2 (Homo sapiens, UniProt P17706); test: Inhibition of TC-PTP
T3 sequence (P17706 whole entry): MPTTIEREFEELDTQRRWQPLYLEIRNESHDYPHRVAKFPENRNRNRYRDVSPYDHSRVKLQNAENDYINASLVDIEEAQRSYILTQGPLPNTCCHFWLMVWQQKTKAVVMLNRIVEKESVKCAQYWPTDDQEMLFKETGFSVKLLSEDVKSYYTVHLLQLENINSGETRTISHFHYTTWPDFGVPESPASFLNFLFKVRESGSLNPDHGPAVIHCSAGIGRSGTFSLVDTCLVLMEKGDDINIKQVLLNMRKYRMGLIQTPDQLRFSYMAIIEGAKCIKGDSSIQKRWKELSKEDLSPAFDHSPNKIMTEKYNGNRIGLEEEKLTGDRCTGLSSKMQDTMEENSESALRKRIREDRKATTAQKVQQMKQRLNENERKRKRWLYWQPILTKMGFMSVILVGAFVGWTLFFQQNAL

Dual specificity protein phosphatase 3 (Homo sapiens), sequence (P51452 whole entry, looked up): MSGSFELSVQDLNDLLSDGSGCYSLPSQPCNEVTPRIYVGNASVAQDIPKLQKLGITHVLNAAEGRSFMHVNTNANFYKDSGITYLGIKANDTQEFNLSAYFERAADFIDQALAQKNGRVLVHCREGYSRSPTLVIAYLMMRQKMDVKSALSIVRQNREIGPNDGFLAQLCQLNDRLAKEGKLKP

With `Cc1cc(S(=O)(=O)O)c(S(=O)(=O)O)cc1N1N=C(C(=O)O)CC1=O` the inhibition [1] was “inactive”, the IC50 [2] was > 100 µM and the inhibition [3] was “inactive”. The inhibition [4] was “inactive”, the IC50 [5] was 118 µM and the IC50 [6] was > 100 µM.

Reference: ChEMBL document CHEMBL1800013, “Small molecule inhibitors of SHP2 tyrosine phosphatase discovered by virtual screening” (Bioorg Med Chem Lett, 2011)
